Test results: patent US7084166B2, “Bis-heterocyclic compounds with antitumour and chemosensitising activity” (Sigma-Tau Industrie Farmaceutichee Riunite S.p.A., priority 2000, dated 2006)

Tests used:
Assay type in all cases: cell-based
[1] = test system: LoVo (human colon adenocarcinoma); assay: Cytotoxicity test on sensitive tumour cell lines (sulforodamine B test); conditions: Homo sapiens, LoVo; 24 h incubation, survival after 48 h; ± S.D.; read-out: antiproliferative activity IC50, Lovo
Description: (§1) This test was used to evaluate the survival of the human cell lines MCF-7 (human mammary carcinoma), LoVo (human colon adenocarcinoma), and MES-SA (human uterine sarcoma). The tumour cells were incubated with the compound, at scalar concentrations, (500 μM÷0.97 μM) for 24 hours; the compound was then removed and cell survival was evaluated after 48 hours using the sulforodamine B test (J. Natl. Cancer Inst. 82, 1107–1112). The antiproliferative activity of the compounds was evaluated in terms of the IC50 (concentration of the molecule that inhibits 50% of cell survival) processed with a curve-fitting program (Am. J. Physiol. 1978., 235, E97–E102) and expressed as μM±S.D.

[2] = test system: MCF-7 (human mammary carcinoma); assay: as above; conditions: Homo sapiens, MCF7; 24 h incubation, survival after 48 h; ± S.D.; read-out: antiproliferative activity IC50, MCF-7
Description: as §1

[3] = test system: MES-SA (human uterine sarcoma); assay: as above; conditions: Homo sapiens, MES-SA; 24 h incubation, survival after 48 h; ± S.D.; read-out: antiproliferative activity IC50, Mes-Sa
Description: as §1

[4] = test system: LoVo-Dx (human colon adenocarcinoma); assay: Cytotoxicity test on resistant tumour cell lines, tested compound alone; conditions: Homo sapiens, LoVo/DX; 24 h incubation, survival after 48 h; ± SD
Description: (§2) This test was used to evaluate the survival of human cell lines resistant to doxorubicin (about 100 times) and cross-resistant to daunorubicin, actinomycin D, mitoxantrone, vincristine, vinblastin, taxol, colchicine, and etoposide.
(§3) The following cell lines were used: MCF-7-Dx (human mammary carcinoma), LoVo-Dx (human colon adenocarcinoma), MES-SA Dx (human uterine sarcoma).
(§4) Before using the association doxorubicin-tested compound, the cytotoxicity of the cells was evaluated with the tested compound (alone) as follows: the cells were incubated with the compound, at scalar concentrations (500 μM÷0.97 μM), for 24 hours; the compound was then removed and cell survival was evaluated after 48 hours with the above-mentioned sulforodamine B test. The antiproliferative activity of the compounds was evaluated in terms of IC50 (concentration of the compound that inhibits 50% of cell survival) processed with the above-mentioned curve-fitting program.

[5] = test system: MCF-7-Dx (human mammary carcinoma); assay: as above; conditions: Homo sapiens, MCF7/DX, 24 h incubation, survival after 48 h; ± SD
Description: as §2, §3, §4

[6] = test system: MES-SA Dx (human uterine sarcoma); assay: as above; conditions: Homo sapiens, MES-SA Dx; 24 h incubation, survival after 48 h; ± SD
Description: as §2, §3, §4

[7] = test system: NB4 cells (acute promyelocytic leukaemia); assay: Cell differentiation by reduction of nitroblue tetrazolium (NBT), with suboptimal ATRA; conditions: combined with suboptimal doses of ATRA, NBT
Description: The first line used was the NB4 cell line, bearing the t(15;17) chromosomal translocation which generates the fusion protein PML/RARα. This line is very sensitive to the differentiative action of pharmacological doses of ATRA (10^−7–10^−6 M).
(§5) The HL60 and NB4 cells were seeded at a density of 150,000 cells/ml in RPMI 1640 medium containing 10% foetal calf serum, and were treated with the tested compounds in the presence and absence of suboptimal doses of ATRA (5–10 nM for NB4 and 0.5 μM for HL60, respectively) in the dark, and returned to the incubator for 3 days without ever replacing the culture medium.
(§6) To analyse the differentiative effect of the tested compounds vs ATRA, on the third day of treatment 500,000 viable cells were harvested from each sample, centrifuged for 10 minutes at 1.000 rpm and resuspended in 1 ml of RPMI 1640 medium containing 10% foetal calf serum, 1 mg/ml of nitroblue tetrazolium (NBT) and 100 ng of PMA (phorbol 12-myristate 13-acetate).
(§7) The cells thus resuspended were incubated in the dark at 37° C. for 60 minutes.
(§8) At the end of the incubation, the cell suspension was centrifuged for 10 minutes at 10,000 rpm; the pellet obtained was then resuspended in 1 ml of PBS containing 10% Triton X-100 and sonicated to lysis.
(§9) Spectrophotometric readings of the samples were then taken at a wavelength of 540 nm: samples containing differentiated cells shifted towards a violet colour, whereas control samples and/or samples with non-differentiated cells were colourless or, at any rate, much less intensely coloured.
(§10) The AC50 (Activating Concentration) is the concentration at which the tested compound induces 50% of cell differentiation.
(§11) Fold Induction is the increase in the differentiation value of the cell sample treated with the tested compound +ATRA vs the value of the cell sample treated with ATRA alone. This value provides an indication of the ability (potency) of the tested compound to enhance ATRA induced cell differentiation.

[8] = test system: HL60 cells (acute promyelocytic leukaemia); assay: as above; conditions: combined with suboptimal doses of ATRA
Description: (§12) The second line used was the HL60 cell line which responds to ATRA (but is less sensitive than the NB4 cell line).
as §5, §6, §7, §8, §9, §10, §11

[9] = test system: HL60 cells (acute promyelocytic leukaemia); assay: Flow cytofluorimetric analysis of cell cycle; conditions: for G0/G1 / G2/M / S: day 3
Description: as §12, §5
To assess the effect of the tested compounds on the various phases of the cell cycle, on the third day of treatment 500,000 cells were harvested, centrifuged at 1,000 rpm for 10 minutes, washed twice in PBS w/o (PBS without calcium and magnesium) and fixed in a solution of 50% PBS w/o+50% methanol/acetone (1:4 v/v) for at least 1 hour; the cells were then centrifuged as described, washed in PBS w/o and centrifuged again.
200 μl of propidium iodide 100 μg/ml and 200 μl of RNase 150 kU/mg were then added to the cell pellet.
After a 30-min incubation in the dark at room temperature, the samples were analysed by flow cytofluirometry.

In the case of OCCCCC(c1c[nH]c2cc3c(cc12)OCO3)c1c[nH]c2cc3c(cc12)OCO3 [ST 1422, 5-hydroxy-1,1-di-(5,6-methylenedioxy-indol-3-yl)-pentane], the IC50 [1] is reported as 23 ± 4.4 µM, the IC50 [2] is reported as 43.1 ± 1.2 µM and the IC50 [3] is reported as 79.3 ± 7.8 µM. For the same compound, the IC50 [4] was 22.3 ± 2.9 µM, the IC50 [5] was 40.1 ± 1.2 µM and the IC50 [6] was 73.3 ± 2.7 µM. The AC50 ([7]; Homo sapiens, NB-4, 72 h, 3 days, read-out: AC50 (concentration at which the tested compound induces 50% of cell differentiation)) was 9.8 ± 0.1 µM, the “fold induction (differentiation, compound + ATRA vs ATRA alone)” value [7] was 1.85 and the AC50 ([8]; Homo sapiens, HL-60, 72 h, 3 days, read-out: AC50 (concentration at which the tested compound induces 50% of cell differentiation)) was 13.6 ± 2.6 µM. The “fold induction (differentiation, compound + ATRA vs ATRA alone)” value [8] was 2.2, the G0/G1 ([9]; compound 1 μM + ATRA 0.5 μM) was 66.8 and the G2/M ([9]; compound 1 μM + ATRA 0.5 μM) was 11.0. For the same compound, the S ([9]; compound 1 μM + ATRA 0.5 μM) was 22.2, the G0/G1 ([9]; compound 5 μM + ATRA 0.5 μM) was 65.1 and the G2/M ([9]; compound 5 μM + ATRA 0.5 μM) was 11.4. It also gave an S ([9]; compound 5 μM + ATRA 0.5 μM) of 23.5, a G0/G1 ([9]; compound 10 μM + ATRA 0.5 μM) of 62.5 and a G2/M ([9]; compound 10 μM + ATRA 0.5 μM) of 12.5. The S ([9]; compound 10 μM + ATRA 0.5 μM) was 25.0, the G0/G1 ([9]; compound 50 μM + ATRA 0.5 μM) was 75.7 and the G2/M ([9]; compound 50 μM + ATRA 0.5 μM) was 13.8. For the same compound, the S ([9]; compound 50 μM + ATRA 0.5 μM) was 10.5, the “effect of the compound alone on induction of apoptosis (in words)” value ([9]; compound alone) was “showed no effect on the induction of apoptosis” and the G0/G1 ([9]; compound alone 1 μM) was 56.2. For the same compound, the G2/M ([9]; compound alone 1 μM) was 10.0, the S ([9]; compound alone 1 μM) was 33.8 and the G0/G1 ([9]; compound alone 5 μM) was 57.6. For the same compound, the G2/M ([9]; compound alone 5 μM) was 10.4, the S ([9]; compound alone 5 μM) was 32.0 and the G0/G1 ([9]; compound alone 10 μM) was 57.8. For the same compound, the G2/M ([9]; compound alone 10 μM) was 10.5, the S ([9]; compound alone 10 μM) was 31.7 and the G0/G1 ([9]; compound alone 50 μM) was 65.8. It also gave a G2/M ([9]; compound alone 50 μM) of 16.4 and an S ([9]; compound alone 50 μM) of 17.8.
